Test results taken from US11738067B2, “Elevated intracranial pressure treatment” (INVEX THERAPEUTICS LTD., priority 2014, dated 2023).
“Also recorded” adds a separate entry of the source. The star is where a group is joined. Myristoyl = CCCCCCCCCCCCCC(=O)*

Legend:
[1] = IIH patients, cited from earlier work; for visual field grades: no significant difference between groups
[2] = Clinical observation of ICP in IIH patients treated with diuretics; format: in vivo
Na^+K^+ATPase [3] = conditions: literature refs 10, 13-15; cited from earlier work
[4] = test system: rat choroid plexus explants; assay: Intracellular Na+ levels (Sodium Green) in choroid plexus explants; format: cell-based; conditions: artificial CSF+Exendin-4 for 3 hours vs no treatment
Description: Intracellular Na^+ levels were observed using Sodium Green (iNa^+) (life technologies). Briefly, rat choroid plexus explants were incubated with iNa^+ for 30 minutes before treatment with artificial CSF (no treatment) or artificial CSF+Exendin-4 for 3 hours. The fluorescence intensity directly correlates with the amount of intracellular Na^+.

GLP-1R [5] = target: T1, GLP-1R (Rattus norvegicus, UniProt P32301); assay: GLP-1R localisation by immunofluorescent staining in choroid plexus explants; format: cell-based; conditions: 100 nM
T1 construct: The choroid plexus from the lateral ventricles were dissected and placed in artificial CSF; from tissue; host or cells: rat choroid plexus explants (lateral ventricles)
T1 sequence (P32301 22-463): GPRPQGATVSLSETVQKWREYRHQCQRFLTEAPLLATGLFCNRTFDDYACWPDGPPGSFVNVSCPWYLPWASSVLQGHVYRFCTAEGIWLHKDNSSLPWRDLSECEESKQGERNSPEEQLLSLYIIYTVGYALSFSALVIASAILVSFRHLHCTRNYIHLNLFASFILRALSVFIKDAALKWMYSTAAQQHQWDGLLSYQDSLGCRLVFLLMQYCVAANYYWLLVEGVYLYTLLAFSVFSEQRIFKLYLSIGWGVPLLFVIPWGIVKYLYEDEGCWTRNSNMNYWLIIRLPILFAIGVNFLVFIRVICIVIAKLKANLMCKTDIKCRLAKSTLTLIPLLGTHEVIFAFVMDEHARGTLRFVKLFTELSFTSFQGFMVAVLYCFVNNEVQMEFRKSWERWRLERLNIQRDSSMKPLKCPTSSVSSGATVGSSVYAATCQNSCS
Description: (§1) The choroid plexus from the lateral ventricles were dissected and placed in artificial CSF (aCSF; 118 mM NaCl, 22 mM NaHCO3, 1.45 mM K2HPO4, 1 mM MgSO4, 1 mM CaCl2 and 10 mM glucose). To evaluate the effects of Exendin-4 on GLP-1R localisation within the cell, the explants were incubated with aCSF containing 100 nM Exendin-9 for 15 minutes or 100 nM Exendin-4 for 15 and 30 minutes. The explants were then fixed and stained following the protocol described below. To determine the effects of Exendin-4 on GLP-1R mRNA expression and protein levels the explants were incubated with aCSF containing 100 nM Exendin-4 for 3 and 6 hours, immediately frozen in liquid nitrogen and stored at −80° C.
For fluorescence labelling of choroid plexus explants and CPe cells, cells were first fixed in PBS containing 2% PFA and 2% glucose for 20 minutes at room temperature, washed in PBS and then permeabilised with methanol for 6 minutes at room temperature. The cells were stained using the same technique described above except that PBST was substituted with PBS.
Stained cells and sections were viewed under a Zeiss LSM 510 UV-confocal microscope (Carl Zeiss) and multiple Z-stack images were taken.

GLP-1R [6] = target: T1, GLP-1R; assay: cAMP levels in choroid plexus explants; format: cell-based; conditions: 3 hours, vs aCSF
Description: Histogram of mean±SEM of cAMP levels in choroid plexus explants in the 3 groups. The normal levels of cAMP observed with aCSF were increased after the addition of Exendin-4 (GLP-1R agonist) for 3 hours. Forskolin, an adenylate cyclase activator, acted as a positive control for cAMP levels;

GLP-1R [7] = target: T1, GLP-1R; assay: GLP-1R mRNA (qPCR) and protein (western blot) in choroid plexus explants; format: cell-based; conditions: 100 nM
Description: as §1
For qPCR studies, hypothalamus, anterior pituitary and choroid plexus were dissected, immediately frozen in liquid nitrogen and stored at −80° C. Primary cultures of CPe cells were grown on 12 well inserts until confluency. Total RNA was extracted using the GenElute mammalian total RNA extraction kit (Sigma-Aldrich) and carried out according to the manufacturer's instructions. RNA was reverse transcribed to complementary DNA (cDNA) using a high capacity reverse transcription kit according to the manufacturer's protocol (Life Technologies). Taqman Gene Expression Assays (Life Technologies) were used to assess the expression of GLP-1R (assay number Rn00562406_m1). The 18S ribosomal subunit was used as an endogenous reference (4319413E) and samples were run in triplicate. The cycle number at which the particular sample crossed that threshold (Ct) was used to determine the levels of gene expression and ΔCt was calculated as the difference between the Ct (gene of interest) and the Ct (endogenous reference).
The hypothalamus, pituitary and choroid plexus were dissected, immediately frozen in liquid nitrogen and stored at −80° C. Tissues were homogenised in ice cold lysis buffer (20 mM Tris-HCl pH 7.4, 150 mM NaCl, 1 mM EDTA, 0.5 mM EGTA, 1% NP-40 containing protease inhibitor) and centrifuged at 13,000 g to remove cell debris. CPe cells were grown on 12 well inserts until confluency. Cell and tissue lysates (3 μg protein) were separated on an 8% SDS-PAGE gel. […] After washing in TBST the membranes were incubated with HRP-conjugated secondary antibody diluted in milk/TBST for 1 hour at room temperature. The bands were detected using ECL reagents (Amersham) and developed onto film.

GLP-1R [8] = target: T1, GLP-1R; assay: cAMP assay in primary CPe cells; format: cell-based
Description: (§2) Choroid plexus tissue from lateral and fourth ventricles were dissected and incubated with 0.25% trypsin solution for 2.5 hours at 4° C. followed by 30 minutes at 37° C. Trypsin digestion was stopped by the addition of newborn calf serum and the cell suspension was centrifuged at 20 g for 10 minutes. Cells were resuspended in DMEM/F12 supplemented with 10% FBS, 1% penicillin/streptomycin, 4 mM L-glutamine, 200 ng/ml hydrocortisone, 5 ng/ml sodium selenite and 10 ng/ml EGF. 20 μM cytosine arabinoside was used for the first 4 days in culture to limit the growth of fibroblasts (Gath et al., 1997). Initially the cells were seeded onto a laminin coated 6 well plate and allowed to grow for 2 days before being transferred to laminin coated 96 well plates or 12 well inserts (Greiner Bio-One Ltd). On day 4 the media was replaced with DMEM/F12 supplemented with 10% FBS and 1% penicillin/streptomycin and changed every 2-3 days. After reaching confluency, CPe cells were serum deprived for 3 days prior to the beginning of the studies (between days 10-14).
The effect of Exendin-4 on the downstream GLP-1R signalling pathway was assessed by measuring the levels of cAMP in CPe cells using the Amersham cAMP Biotrak Enzyme immunoassay (EIA) System (RPN 225, GE Healthcare Life Sciences). […] The cells were subsequently lysed and cAMP detected according to the manufacturer's instructions.

Na^+K^+ATPase [9] = assay: Na+K+ATPase activity assay in CPe cells; format: cell-based, rat
Description: as §2
The effect of Exendin-4 on Na^+K^+ATPase activity in the choroid plexus was evaluated by the colorimetric measurement of phosphate released from ATP with the use of a phosphate assay kit (ab65622, Abcam); with Na^+K^+ATPase activity being defined as the portion of phosphate produced that is sensitive to Ouabain. CPe cells were incubated with aCSF for 1 hour at 37° C. before incubation in aCSF containing; 100 nM Exendin-4 (n=7), 5 μM PKI-16-22-amide (n=8), 100 nM Exendin-4+5 μM PKI-16-22-amide (n=8); in the presence and absence of 1 mM Ouabain for 30 minutes at 37° C. The cells were then lysed on ice and spun at 13,000 g to remove cell debris. Phosphate was measured as per the manufacturer's instructions. Briefly the samples were added to the reaction mix and incubated at room temperature for 60 minutes before the plate was read at 690 nm. Na^+K^+ATPase activity was calculated as the difference between the amount of phosphate produced in the presence and absence of Ouabain for each treatment.

[10] = ICP recordings in conscious rats (epidural pressure bolt); format: in vivo, rat; conditions: for change in ICP from baseline: 30 and 60 minutes post treatment
Description: This procedure and its validation were recently published as a methodological work and contains all technical and surgical detail (Uldall et al, 2014). In brief, rats were anaesthetised (2.7 ml/kg subcutaneous injection containing 1.25 mg/ml midazolam, 2.5 mg/ml fluanisone and 0.079 mg/ml fentanylcitrate). The rat was placed in a stereotactic frame (David Kopf Instruments) and a 2 cm-midline incision was performed on top of the skull and the bone was exposed by retracting the skin and soft tissue. A dental drill was used to induce 4 burr holes in the skull; one large hole was carefully drilled to expose the dura mater to enable placement of the epidural pressure bolt (C313G-3UP, PlasticsOne), with the cannula cut to be level with the base of the pedestal. The other 3 smaller holes were used to fit anchoring screws to the skull. The epidural pressure bolt and the anchoring screws were placed and aligned with the interior surface of the skull and secured using dental resin-cement (Clearfil SA Cement, RH Dental). The epidural pressure bolt and the transducer (DTX-Plus™, Argon Medical Devices) were then connected by a polyethylene tube filled with sterile water, ensuring the absence of air bubbles.
The pressure signal was visualised and recorded using Perisoft v.2.5.5 (Perimed). Correct ICP signal was confirmed by the transient elevation of ICP after jugular vein compression. When the ICP recording procedure was completed the epidural pressure bolt was closed with a bite proof cap (303DCFTX2, PlasticsOne) and the rat allowed to recover.
In order to perform recordings in conscious animals, rats were sedated with midazolam (2.5 mg/kg subcutaneous injection) and the transducer connected to the epidural pressure bolt. […] The ICP signal was again confirmed by jugular vein compression as described above. […]

## CC(=O)Nc1nnc(S(N)(=O)=O)s1 [Acetazolamide]
[1]
  visual field grades: improved from baseline

## CC1(C)O[C@@H]2[C@@H](CO[C@@]3(COS(N)(=O)=O)OC(C)(C)O[C@@H]23)O1 [Topiramate]
[1]
  visual field grades: improved from baseline
  therapeutic benefit on IIH versus acetazolamide control cohort: no therapeutic benefit on IIH was noted above the control cohort
  weight loss: induce weight loss

## NS(=O)(=O)c1cc(C(=O)O)c(NCc2ccco2)cc1Cl [furosemide]
[2]
  effects on ICP in IIH patients: clinically beneficial effects on ICP

## C[C@@H]1O[C@@H](O[C@H]2C[C@@H](O)[C@]3(CO)[C@H]4[C@H](O)C[C@]5(C)[C@@H](C6=CC(=O)OC6)CC[C@]5(O)[C@@H]4CC[C@]3(O)C2)[C@H](O)[C@H](O)[C@H]1O [ouabain, Ouabain]
Na^+K^+ATPase [3]
  CSF secretion: totally inhibited

## Exendin-4
[4]
  intracellular Na+ levels (Sodium Green fluorescence): higher numbers of intense fluorescent choroid plexus epithelial cells with no treatment
[4]; listed as exendin-4
  intracellular Na+ levels (Sodium Green fluorescence): reduce intracellular sodium
GLP-1R [5]
  GLP-1R localisation after 15 minutes: predominantly restricted to the apical surface; also recorded: relocation of the GLP-1R to the apical surface
GLP-1R [5]; 30 minutes
  GLP-1R localisation after 30 minutes: translocated back to the cytoplasm; also recorded: internalised
GLP-1R [6]
  cAMP levels in choroid plexus explants: increased
GLP-1R [6]; listed as exendin-4
  cAMP levels in choroid plexus explants: increased levels of cAMP
GLP-1R [7]; 3 hours, vs aCSF
  GLP-1R mRNA level: significant increases
  GLP-1R protein level: significant increases
GLP-1R [7]; 6 hours
  GLP-1R mRNA level: returned to basal levels
  GLP-1R protein level: remained high
GLP-1R [8]; 100 nM, 30 minutes, 1 mM IBMX
  increase in cAMP compared to baseline: 2 fold
GLP-1R [8]; FIG. 10A
  cAMP levels in CPe cells compared to control (in words): significantly increased
Na^+K^+ATPase [9]; 100 nM, 30 minutes, FIG. 10B
  Na+K+-ATPase activity compared to control (in words): reduced
Na^+K^+ATPase [9]; 100 nM, 30 minutes, ouabain-sensitive
  Na+K+ATPase specific phosphate production: 39.3±9.4 % of control
[10]; 1 μg/kg
  change in ICP from baseline: lowered the ICP from baseline
[10]; 3 μg/kg
  change in ICP from baseline: lowered the ICP from baseline
[10]; 5 μg/kg
  change in ICP from baseline: greatest reduction
[10]; 5 μg/kg, 24 hours
  ICP over a 24 hour period: remained reduced
[10]; conscious rats, 20 μg/kg subcutaneous
  time to significant ICP reduction compared to saline: ≤ 10 min
[10]; conscious rats, 20 μg/kg subcutaneous, 60 minutes recording
  persistence of ICP reduction during recording: remained significantly lower for the rest of the recording; also recorded: lasted for the full 60 minutes
[10]; conscious rats, 20 μg/kg subcutaneous, within 10 minutes
  ICP reduction from baseline: 60.6±4.9%

## Exendin-9
GLP-1R [5]
  GLP-1R localisation after 15 minutes: predominantly restricted to the apical surface; also recorded: restricted to the apical membrane

## myristoylated protein kinase inhibitor (PKI)-(14-22)-amide (Myristoyl-SGRTGRRNA-NH2; UniProt P61925 14-22, looked up, fragment) [PKA inhibitor]
Na^+K^+ATPase [9]; 5 μM PKA inhibitor + 100 nM Exendin-4
  effect on the Exendin-4 reduction in Na+K+ATPase activity: abolish the Exendin-4 reduction
